Where “and” joins values, the source holds several entries; their conditions need not be identical. Identical values can stand only once.
Key:
[1] = target: T1, BCL-xL/PROTAC/VHL-ELOC-ELOB (VCB) ternary complex (Homo sapiens, UniProt P40337+Q07817); assay: AlphaLISA ternary complex formation, cell-free, BCL-xL; type: binding; details: for in vitro ternary complex formation with BCL-xL (in words): AlphaLISA, cell-free, Fig. 2c, 3e; for AlphaLISA signal, BCL-xL/PROTAC/VCB: Fig. 2c raw Alpha reads
T1 construct: pGEX-6P-1-VHL(54-213) (pDL2200) was constructed through Gibson assembly method; made in house; host or cells: bacterial culture (LB broth, IPTG induction)
Procedure: (§1) AlphaLISA assay was used to evaluate the in vitro ternary complex formation between target proteins (BCL-xL or BCL-2), PROTAC and E3 ligase (VCB complex). In each well, 5 nM His-tagged BCL-xL or BCL-2 proteins and 5 nM GST-VCB complex was incubated with varying concentrations of compounds in fourfold serial dilutions, to a final volume of 40 µl in a 96-well PCR plate. After incubation at room temperature for 30 min, 5 µl alpha glutathione-donor beads (Cat. No. 6765300, PerkinElmer) were added to each well (20 µg/ml final concentration) and incubated for another 15 min. Thereafter, 5 µL 6× His-acceptor beads were added to each well (20 µg/ml final concentration) and incubated for an additional 45 min at room temperature. Thereafter, 17 µl of each sample was transferred in adjacent wells of a 384-well proxy plate, and the plate was scanned using the Alpha program on Biotek’s Synergy Neo2 multimode plate reader. The data were expressed as average AlphaLISA signal and plotted against different concentrations of compounds using GraphPad Prism 9 software.

BCL-xL = target: T2, BCL-xL (Homo sapiens, UniProt Q07817); assay: BCL-xL degradation by immunoblot in 293T cells; type: cell-based; details: for DC50: 293T cells, four concentrations, 16 h, Fig. 2b, read-out: BCL-xL DC50; for Dmax: HEK-293T
T2 construct: endogenous in cells
Procedure, shortened: (§2)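 Immunoblot of 293T cell lysates (RIPA, 20–40 μg protein per lane) with β-actin as loading control and chemiluminescent detection. Bands quantified by densitometry and normalized; DC50 and Dmax derived from the quantified blots, n = 3 biologically independent experiments.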

[2] = target: T3, BCL-2/PROTAC/VCB ternary complex (Homo sapiens, UniProt P10415+P40337); assay: AlphaLISA ternary complex formation, cell-free, BCL-2; type: binding; details: for in vitro ternary complex formation with BCL-2 (in words): AlphaLISA, cell-free, Fig. 2d, 3f; for AlphaLISA signal, BCL-2/PROTAC/VCB: Fig. 2d raw Alpha reads
T3 construct: pGEX-6P-1-VHL(54-213) (pDL2200) was constructed through Gibson assembly method; made in house; host or cells: bacterial culture (LB broth, IPTG induction)
Procedure: as §1

BCL-2 = target: T4, BCL-2 (Homo sapiens, UniProt P10415); assay: BCL-2 degradation by immunoblot in 293T cells; type: cell-based; details: for Dmax: HEK-293T
T4 construct: endogenous in cells
Procedure, shortened: as §2

[3] = compound 200000 nM, 2 technical replicates

T2 sequence (Q07817 whole entry): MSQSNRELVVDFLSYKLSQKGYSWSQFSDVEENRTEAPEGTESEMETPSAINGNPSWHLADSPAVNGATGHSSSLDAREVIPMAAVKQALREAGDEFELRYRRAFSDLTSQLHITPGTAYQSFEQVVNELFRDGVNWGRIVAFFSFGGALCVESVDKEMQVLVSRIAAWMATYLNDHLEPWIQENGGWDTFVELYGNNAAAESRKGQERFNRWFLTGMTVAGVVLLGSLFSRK
T1 sequence (Q07817 1-212 limits assumed): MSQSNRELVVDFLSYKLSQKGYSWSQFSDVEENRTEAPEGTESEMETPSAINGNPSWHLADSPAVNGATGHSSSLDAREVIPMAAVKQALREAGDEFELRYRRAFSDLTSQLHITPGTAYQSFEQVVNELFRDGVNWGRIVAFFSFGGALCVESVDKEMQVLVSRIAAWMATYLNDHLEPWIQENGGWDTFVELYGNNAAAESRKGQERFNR
T1 sequence (P40337 54-213 limits assumed): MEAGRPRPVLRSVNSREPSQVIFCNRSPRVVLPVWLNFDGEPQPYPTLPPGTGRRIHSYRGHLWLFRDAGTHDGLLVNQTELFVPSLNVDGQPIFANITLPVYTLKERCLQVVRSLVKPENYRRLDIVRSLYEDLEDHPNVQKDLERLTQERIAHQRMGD
T1 sequence (Q15369 17-112 partner limits assumed): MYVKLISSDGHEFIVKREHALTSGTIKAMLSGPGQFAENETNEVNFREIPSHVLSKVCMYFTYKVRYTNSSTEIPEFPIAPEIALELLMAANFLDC
T1 sequence (Q15370 whole entry partner): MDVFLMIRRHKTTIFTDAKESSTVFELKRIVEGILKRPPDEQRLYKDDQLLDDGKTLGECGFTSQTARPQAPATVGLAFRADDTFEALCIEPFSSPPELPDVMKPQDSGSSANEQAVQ
T4 sequence (P10415 whole entry): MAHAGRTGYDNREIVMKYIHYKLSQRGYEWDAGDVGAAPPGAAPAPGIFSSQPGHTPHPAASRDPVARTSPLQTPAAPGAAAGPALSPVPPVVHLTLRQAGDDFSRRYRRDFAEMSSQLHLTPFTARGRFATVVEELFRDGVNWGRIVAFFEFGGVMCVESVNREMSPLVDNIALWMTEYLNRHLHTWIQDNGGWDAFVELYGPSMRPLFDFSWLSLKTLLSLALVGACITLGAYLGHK
T3 sequence (P10415 1-211 limits assumed): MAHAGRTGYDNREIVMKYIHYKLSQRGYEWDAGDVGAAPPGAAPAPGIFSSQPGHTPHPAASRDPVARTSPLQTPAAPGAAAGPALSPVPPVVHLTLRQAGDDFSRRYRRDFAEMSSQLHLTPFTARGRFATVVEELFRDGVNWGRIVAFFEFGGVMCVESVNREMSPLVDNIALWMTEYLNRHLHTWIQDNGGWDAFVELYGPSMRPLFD
T3 sequence (P40337 54-213 limits assumed): as the sequence (P40337 54-213 limits assumed) above
T3 sequence (Q15369 17-112 partner limits assumed): as the sequence (Q15369 17-112 partner limits assumed) above
T3 sequence (Q15370 whole entry partner): as the sequence (Q15370 whole entry partner) above

| in vitro ternary complex formation with BCL-xL (in words) [1] | AlphaLISA signal, BCL-xL/PROTAC/VCB ([1]; compound 0.191 nM) | AlphaLISA signal, BCL-xL/PROTAC/VCB ([1]; compound 0.763 nM) | AlphaLISA signal, BCL-xL/PROTAC/VCB ([1]; compound 3.052 nM) | AlphaLISA signal, BCL-xL/PROTAC/VCB ([1]; compound 12.207 nM) | AlphaLISA signal, BCL-xL/PROTAC/VCB ([1]; compound 48.828 nM) | AlphaLISA signal, BCL-xL/PROTAC/VCB ([1]; compound 195.31 nM) | AlphaLISA signal, BCL-xL/PROTAC/VCB ([1]; compound 781.25 nM) | AlphaLISA signal, BCL-xL/PROTAC/VCB ([1]; compound 3125 nM) | AlphaLISA signal, BCL-xL/PROTAC/VCB ([1]; compound 12500 nM) | AlphaLISA signal, BCL-xL/PROTAC/VCB ([1]; compound 50000 nM) | AlphaLISA signal, BCL-xL/PROTAC/VCB [1, 3] | DC50 (BCL-xL) [nM] | Dmax (BCL-xL) [%] | in vitro ternary complex formation with BCL-2 (in words) [2] | AlphaLISA signal, BCL-2/PROTAC/VCB ([2]; compound 0.763 nM) | AlphaLISA signal, BCL-2/PROTAC/VCB ([2]; compound 3.052 nM) | AlphaLISA signal, BCL-2/PROTAC/VCB ([2]; compound 12.207 nM) | AlphaLISA signal, BCL-2/PROTAC/VCB ([2]; compound 48.828 nM) | AlphaLISA signal, BCL-2/PROTAC/VCB ([2]; compound 195.31 nM) | Structure (SMILES) | further results |
| --- | --- | --- | --- | --- | --- | --- | --- | --- | --- | --- | --- | --- | --- | --- | --- | --- | --- | --- | --- | --- | --- |
| stronger ternary complexes | 15802 and 16724 | 18968 and 16877 | 31177 and 28685 | 217997 and 245739 | 796343 and 866530 | 952961 and 938632 | 936762 and 1084189 | 603765 and 595968 | 155340 and 139952 | 73929 and 84434 | 25477 and 29119 | 39.9 | 91 | stronger ternary complexes | 18031 and 17435 | 30431 and 31755 | 272991 and 264284 | 1222232 and 1254048 | 1139558 and 1151559 | Cc1ncsc1-c1ccc([C@H](C)NC(=O)[C@@H]2C[C@@H](O)CN2C(=O)[C@@H](NC(=O)CCCCC(=O)N2CCN(CC3(C)CCC(c4ccc(Cl)cc4)=C(CN4CCN(c5ccc(C(=O)NS(=O)(=O)c6ccc(N[C@H](CCN7CCOCC7)CSc7ccccc7)c(S(=O)(=O)C(F)(F)F)c6)cc5)CC4)C3)CC2)C(C)(C)C)cc1 (stereo partly shown) [PPC6] | AlphaLISA signal, BCL-2/PROTAC/VCB ([2]; compound 0.191 nM): 16425 and 15906; AlphaLISA signal, BCL-2/PROTAC/VCB ([2]; compound 781.25 nM): 1076543 and 1153682; AlphaLISA signal, BCL-2/PROTAC/VCB ([2]; compound 3125 nM): 286448 and 313784; AlphaLISA signal, BCL-2/PROTAC/VCB ([2]; compound 12500 nM): 33420 and 31990; AlphaLISA signal, BCL-2/PROTAC/VCB ([2]; compound 50000 nM): 13658 and 13269; AlphaLISA signal, BCL-2/PROTAC/VCB [2, 3]: 8289 and 7903; Dmax (BCL-2): 47% |
| stronger ternary complexes | 16342 and 14008 | 13825 and 16199 | 18964 and 20836 | 75292 and 75299 | 594562 and 681817 | 1206651 and 1333081 | 1103207 and 1035637 | 530944 and 584971 | 158302 and 141290 | 39339 and 47417 | 23853 and 20524 | 12.8 | 85 | stronger ternary complexes | 20141 and 15109 | 29796 and 29041 | 146984 and 135341 | 1032585 and 1008497 | 1592216 and 1719187 | Cc1ncsc1-c1ccc([C@H](C)NC(=O)[C@@H]2C[C@@H](O)CN2C(=O)[C@@H](NC(=O)CCCCCC(=O)N2CCN(CC3(C)CCC(c4ccc(Cl)cc4)=C(CN4CCN(c5ccc(C(=O)NS(=O)(=O)c6ccc(N[C@H](CCN7CCOCC7)CSc7ccccc7)c(S(=O)(=O)C(F)(F)F)c6)cc5)CC4)C3)CC2)C(C)(C)C)cc1 (stereo partly shown) [PPC7] | AlphaLISA signal, BCL-2/PROTAC/VCB ([2]; compound 781.25 nM): 1513830 and 1470142; AlphaLISA signal, BCL-2/PROTAC/VCB ([2]; compound 3125 nM): 403994 and 403317; AlphaLISA signal, BCL-2/PROTAC/VCB ([2]; compound 12500 nM): 43692 and 35758; AlphaLISA signal, BCL-2/PROTAC/VCB ([2]; compound 50000 nM): 12115 and 13570; AlphaLISA signal, BCL-2/PROTAC/VCB [2, 3]: 14257 and 11084; BCL-2 degradation (in words) (BCL-2; 293T cells, 16 h): also degraded BCL-2; DC50 (BCL-2; 293T cells, four concentrations, 16 h, Fig. 2b, read-out: BCL-2 DC50): 180 nM; Dmax (BCL-2): 79% |

Reference: paper PMC8617031, “Development of a BCL-xL and BCL-2 dual degrader with improved anti-leukemic activity,” (Nature Communications, 2021)
